Test results: PMC6271639, “Lycodine-Type Alkaloids from Lycopodiastrum casuarinoides and Their Acetylcholinesterase Inhibitory Activity” (Molecules, 2014)

Experiments:
[1] = target: T1, AChE (EC3.1.1.7, Sigma product no. C2888) (Electrophorus electricus, UniProt O42275); assay: AChE inhibition by modified Ellman's method in 96-well microplates; assay type: biochemical; conditions: for AChE inhibitory activity in words: qualitative statement
T1 construct: purchased Sigma (St. Louis, MO, USA) C2888
T1 sequence (O42275 24-633): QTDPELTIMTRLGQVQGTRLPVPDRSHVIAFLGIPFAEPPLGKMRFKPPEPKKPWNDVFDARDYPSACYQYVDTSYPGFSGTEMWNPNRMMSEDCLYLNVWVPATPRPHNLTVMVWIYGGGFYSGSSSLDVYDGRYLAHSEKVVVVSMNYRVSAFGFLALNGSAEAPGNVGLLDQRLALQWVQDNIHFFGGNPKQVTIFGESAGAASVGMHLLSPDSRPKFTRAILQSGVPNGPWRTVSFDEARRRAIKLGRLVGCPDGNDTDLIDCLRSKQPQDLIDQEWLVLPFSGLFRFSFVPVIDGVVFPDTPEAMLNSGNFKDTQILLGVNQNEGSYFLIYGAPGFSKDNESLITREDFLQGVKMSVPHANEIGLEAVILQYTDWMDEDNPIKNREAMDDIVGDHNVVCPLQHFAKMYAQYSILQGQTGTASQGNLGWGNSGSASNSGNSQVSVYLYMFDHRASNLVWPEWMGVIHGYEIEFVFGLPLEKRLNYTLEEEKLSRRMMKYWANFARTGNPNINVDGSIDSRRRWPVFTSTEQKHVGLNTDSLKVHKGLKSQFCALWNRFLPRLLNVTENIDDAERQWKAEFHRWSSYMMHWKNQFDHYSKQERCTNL
Method: The isolated lycodine-type alkaloids 1–14 were evaluated for their AChE inhibiting activity by Ellman’s method in 96-well microplates.
AChE (EC3.1.1.7, Sigma product no. C2888), acetylthiocholine iodide (ATCI), 5,5'-dithiobis [2-nitrobenzoic acid] (DTNB) and huperzine A (purity 98%) were purchased from Sigma (St. Louis, MO, USA).
Briefly, 0.1 M sodium phosphate buffer (140 µL, pH = 8.0), sample solution (20 µL) and enzyme solution (15 µL) were mixed and incubated at 4 °C for 20 min. Ten µL of 0.01 M DTNB was added and the reaction was then started by adding 0.075 M ATCI (10 µL). […] Blanks were set up by adding 20 µL buffer solutions instead of 20 µL sample solution. Experiment control was set up by adding 15 µL buffer solutions instead of 15 µL enzyme solution in order to deduct the sample background. All reactions were carried out thrice.

[2] = tested on: AChE; conditions: previously reported ref 8, 13, 21; cited from earlier work

C=CC1C2C=C(C)CC1(N(C)C)c1ccc(=O)[nH]c1C2 (stereo not drawn) [Compound 5, huperzinine]
AChE inhibitory activity in words [1]: very weak activity

C=CC1C2C=C(C)CC1(NC)c1ccc(=O)[nH]c1C2 (stereo not drawn) [Compound 7, N-demethylhuperzinine]
IC50 [1]: 1.9 ± 0.2 µM

CC1=C[C@H]2Cc3[nH]c(=O)ccc3[C@]3(C1)NCCC[C@H]23 [Compound 9, huperzine B]
IC50 [1]: 20.2 ± 1.3 µM | AChE inhibitory activity in words [1]: significant inhibitory activity | IC50 [2]: 19.3 µM

C=CC1C2C=C(CO)CC1(NC)c1ccc(=O)[nH]c1C2 (stereo not drawn) [Compound 10, casuarinine E]
IC50 [1]: > 250 µM

C=C[C@@H]1[C@H]2C=C(CO)C[C@]1(N)c1ccc(=O)[nH]c1C2 [Compound 13, lycoparin C]
IC50 [1]: 23.9 ± 2.2 µM | AChE inhibitory activity in words [1]: significant inhibitory activity | IC50 [2]: 25 µM
